The text below walks through data of article doi:10.1101/2025.02.15.638425v1, “Synthesis and Biological Evaluation of Nipecotic Acid Derivatives with Terminally Double-Substituted Allenic Spacers as mGAT4 Inhibitors” (biorxiv, 2025).

Structures are written as SMILES.

For assay [1], the target named is T1, mGAT1 (Mus musculus, UniProt P31648).
T1 construct: gene Slc6a1; full-length transporter stably expressed in HEK293 cells
Briefly: [3H]GABA uptake, intact HEK293 cells. Type of assay: cell-based. The text has this:
[3H]GABA uptake, intact HEK293 cells on mGAT1

For assay [2], the target named is T1, mGAT1. Briefly: competitive MS Binding Assay, NO711 marker, HEK293 membranes. The text has this:
competitive MS Binding Assay, NO711 marker, HEK293 membranes on mGAT1

In assay [3] the target is T2, mGAT2 (Mus musculus, UniProt P31651).
T2 construct: gene Slc6a12; full-length transporter stably expressed in HEK293 cells; mouse nomenclature, equivalent of hBGT-1
T2 sequence (P31651 1-614): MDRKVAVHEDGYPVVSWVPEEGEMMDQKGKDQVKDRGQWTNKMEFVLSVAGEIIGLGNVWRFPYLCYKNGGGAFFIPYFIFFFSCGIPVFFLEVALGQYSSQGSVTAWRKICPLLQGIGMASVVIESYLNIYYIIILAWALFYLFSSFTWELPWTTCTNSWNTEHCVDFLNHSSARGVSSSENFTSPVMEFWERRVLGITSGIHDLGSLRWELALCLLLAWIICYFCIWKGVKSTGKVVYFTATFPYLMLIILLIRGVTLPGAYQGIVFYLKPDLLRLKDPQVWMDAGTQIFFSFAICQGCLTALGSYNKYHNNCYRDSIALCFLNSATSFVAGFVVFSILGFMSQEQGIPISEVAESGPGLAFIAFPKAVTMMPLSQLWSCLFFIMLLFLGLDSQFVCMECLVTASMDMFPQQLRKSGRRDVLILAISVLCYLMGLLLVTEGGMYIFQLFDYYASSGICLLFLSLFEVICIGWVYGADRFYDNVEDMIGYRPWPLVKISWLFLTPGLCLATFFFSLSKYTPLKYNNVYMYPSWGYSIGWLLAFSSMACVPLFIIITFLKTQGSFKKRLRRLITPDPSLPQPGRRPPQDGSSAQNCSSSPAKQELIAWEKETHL
Briefly: [3H]GABA uptake, intact HEK293 cells. Type of assay: cell-based. The text has this:
[3H]GABA uptake, intact HEK293 cells on mGAT2

The target in assay [4] is T3, mGAT3 (Mus musculus, UniProt P31649).
T3 construct: gene Slc6a13; full-length transporter stably expressed in HEK293 cells; mouse nomenclature, equivalent of hGAT-2
T3 sequence (P31649 1-602): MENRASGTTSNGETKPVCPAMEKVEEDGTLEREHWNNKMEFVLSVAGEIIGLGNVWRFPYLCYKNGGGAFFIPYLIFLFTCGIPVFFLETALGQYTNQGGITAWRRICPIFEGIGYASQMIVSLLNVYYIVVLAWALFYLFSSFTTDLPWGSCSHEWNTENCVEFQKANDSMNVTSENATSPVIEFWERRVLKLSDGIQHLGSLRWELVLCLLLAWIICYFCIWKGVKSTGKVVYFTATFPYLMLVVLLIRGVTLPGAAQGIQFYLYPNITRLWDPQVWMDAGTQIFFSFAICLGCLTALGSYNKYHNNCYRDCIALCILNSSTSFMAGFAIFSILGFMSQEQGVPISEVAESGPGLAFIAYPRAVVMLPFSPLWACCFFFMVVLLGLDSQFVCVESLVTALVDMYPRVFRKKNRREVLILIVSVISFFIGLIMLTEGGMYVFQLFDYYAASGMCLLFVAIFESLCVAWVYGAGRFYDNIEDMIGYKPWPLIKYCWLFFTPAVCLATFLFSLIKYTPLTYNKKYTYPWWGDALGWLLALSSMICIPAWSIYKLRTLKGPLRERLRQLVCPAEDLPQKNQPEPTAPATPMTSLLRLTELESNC
Briefly: [3H]GABA uptake, intact HEK293 cells. Type of assay: cell-based. The text has this:
[3H]GABA uptake, intact HEK293 cells on mGAT3

In assay [5] the target is T4, mGAT4 (Mus musculus, UniProt P31650).
T4 construct: gene Slc6a11; full-length transporter stably expressed in HEK293 cells
T4 sequence (P31650 1-627): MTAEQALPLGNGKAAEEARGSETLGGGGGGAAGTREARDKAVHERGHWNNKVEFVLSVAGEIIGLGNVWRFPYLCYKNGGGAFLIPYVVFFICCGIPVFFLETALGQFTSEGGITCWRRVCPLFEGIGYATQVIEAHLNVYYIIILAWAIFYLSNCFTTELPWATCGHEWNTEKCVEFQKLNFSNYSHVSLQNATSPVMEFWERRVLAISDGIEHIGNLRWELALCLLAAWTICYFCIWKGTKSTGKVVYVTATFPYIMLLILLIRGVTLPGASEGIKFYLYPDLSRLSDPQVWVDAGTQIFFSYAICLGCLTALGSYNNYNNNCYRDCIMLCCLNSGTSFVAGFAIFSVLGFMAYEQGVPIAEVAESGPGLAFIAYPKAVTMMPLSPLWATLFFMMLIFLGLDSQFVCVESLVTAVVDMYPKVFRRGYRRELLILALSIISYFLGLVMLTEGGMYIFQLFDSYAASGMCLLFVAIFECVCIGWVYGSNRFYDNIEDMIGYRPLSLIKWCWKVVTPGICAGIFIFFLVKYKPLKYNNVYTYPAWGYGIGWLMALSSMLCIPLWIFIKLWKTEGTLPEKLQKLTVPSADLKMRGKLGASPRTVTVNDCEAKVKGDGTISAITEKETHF
The assay can be described thus: [3H]GABA uptake, intact HEK293 cells. Type of assay: cell-based.

Assay [6] has as its target T5, hGAT-3 (Homo sapiens, UniProt P48066).
T5 construct: gene SLC6A11; full-length transporter stably expressed in COS-7 cells
T5 sequence (P48066 1-632): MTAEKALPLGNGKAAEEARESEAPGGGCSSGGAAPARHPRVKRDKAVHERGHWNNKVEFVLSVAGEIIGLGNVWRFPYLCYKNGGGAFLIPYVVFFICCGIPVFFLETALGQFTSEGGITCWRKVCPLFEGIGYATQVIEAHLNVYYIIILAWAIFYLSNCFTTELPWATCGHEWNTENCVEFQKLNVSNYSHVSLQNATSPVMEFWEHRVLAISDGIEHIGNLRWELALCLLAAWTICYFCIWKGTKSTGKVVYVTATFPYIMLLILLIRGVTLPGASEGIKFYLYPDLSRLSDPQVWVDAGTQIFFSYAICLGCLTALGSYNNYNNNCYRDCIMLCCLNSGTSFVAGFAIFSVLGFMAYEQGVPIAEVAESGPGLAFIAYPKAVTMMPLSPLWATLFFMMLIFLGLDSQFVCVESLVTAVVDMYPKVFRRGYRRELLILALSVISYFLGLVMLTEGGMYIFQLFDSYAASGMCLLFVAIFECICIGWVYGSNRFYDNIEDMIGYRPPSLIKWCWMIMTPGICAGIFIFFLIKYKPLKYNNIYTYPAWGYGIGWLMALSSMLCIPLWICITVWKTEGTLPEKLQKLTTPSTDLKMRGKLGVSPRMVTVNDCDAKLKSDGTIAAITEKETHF
Briefly: MS Transport Assay (GABA transport), COS-7 cells. Type of assay: cell-based. The text has this: MS Transport Assay (GABA transport), COS-7 cells on hGAT-3

In assay [7] the target is T4, mGAT4. Briefly: [3H]GABA uptake, intact HEK293 cells. Type of assay: cell-based. The text has this:
[3H]GABA uptake, intact HEK293 cells on mGAT4
The source holds these as a separate data set.

On to `O=C(O)[C@@H]1CCCN(CC=C=C(c2ccc(Cl)cc2)c2ccc(Cl)cc2)C1` [(R)-8d], for which the IC50 is 0.155 µM in assay [1]; 15.8 µM in assay [3]; 4.17 µM in assay [4]; 2 µM in assay [5]; 2.4 µM in assay [6]. In assay [2], this molecule gave a Ki of 0.102 µM.
On to `O=C(O)C1CCCN(CC=C=C(c2ccc(F)cc2)c2ccc(F)cc2)C1` (racemic) [rac-8c, rac-{1-[4,4-Bis(4-fluorophenyl)buta-2,3-dien-1-yl]piperidine-3-carboxylic acid}], for which the IC50 is 1.07 µM in assay [1], 79.4 µM in assay [3], 69.2 µM in assay [4] and 30.2 µM in assay [5]. This molecule gave a Ki in assay [2] of 0.562 µM.
Regarding `O=C(O)C1CCCN(CCC=C=C(c2ccccc2)c2ccc(-c3ccccc3)cc2)C1` (racemic) [11f, rac-{(Ra)-1-[5-(1,1’-biphenyl-4-yl)-5-phenylpenta-3,4-dien-1-yl]-(3R)-piperidine-3-carboxylic acid} [rac-(3R,Ra)-11f] and rac-{(Sa)-1-[5-(1,1’-biphenyl-4-yl)-5-phenylpenta-3,4-dien-1-yl]-(3R)-piperidine-3-carboxylic acid}], the IC50 was 4.68 µM in assay [1]; 12.3 µM in assay [3]; 10.2 µM in assay [4]; 12.6 µM in assay [5]; 6.17 µM in assay [6]. The molecule also had a Ki in assay [2] of 0.891 µM.
As to `O=C(O)[C@H]1CCCN(CC=C=C(c2ccc(Cl)cc2)c2ccc(Cl)cc2)C1` [(S)-8d, (S)-1-[4,4-bis(4-chlorophenyl)buta-2,3-dien-1-yl]piperidine-3-carboxylic acid], the IC50 was 1.35 µM in assay [1]; 4.07 µM in assay [3]; 1.1 µM in assay [4]; 0.257 µM in assay [5]; 0.324 µM in assay [6]. In assay [2], this molecule had a Ki of 2.51 µM.
Turning to `Cc1ccc(C(=C=CCN2CCCC(C(=O)O)C2)c2ccc(C)cc2)cc1` (racemic) [rac-8b, rac-[1-(4,4-Di-p-tolylbuta-2,3-dien-1-yl)piperidine-3-carboxylic acid]], the IC50 in assay [1] was 6.46 µM; in assay [3] it was 27.5 µM; in assay [4], 10.5 µM; in assay [5], 11.5 µM. In addition, the Ki in assay [2] is 1.38 µM.
On to `O=C(O)C1CCCN(CC=C=C(c2ccc(Cl)cc2)c2ccc(Cl)cc2)C1` (racemic) [rac-8d], for which the IC50 was 0.372 µM in assay [1]; 7.59 µM in assay [3]; 2.95 µM in assay [4]; 0.832 µM in assay [5]; 0.447 µM in assay [6]. The molecule also gave a Ki in assay [2] of 0.155 µM.
On to `Cc1ccc(C(=C=CCCN2CCCC(C(=O)O)C2)c2ccc(C)cc2)cc1` (racemic) [rac-11b, rac-[1-(5,5-Di-p-tolylpenta-3,4-dien-1-yl)piperidine-3-carboxylic acid]], for which the IC50 in assay [1] is 14.1 µM; in assay [3], 81.3 µM; in assay [4] it was 58.9 µM; in assay [5] it was 83.2 µM. In assay [2], the Ki was 1.58 µM.
In assay [1], `COc1ccc2c(c1)CCCC2=C=CCN1CCCC(C(=O)O)C1` (racemic) [8g, rac-[(Ra)-1-{3-[6-methoxy-3,4-dihydronaphthalen-1(2H)-ylidene]allyl}-(3R)-piperidine-3-carboxylic acid] [rac-(3R,Ra)-8g] and rac-[(Sa)-1-{3-[6-methoxy-3,4-dihydronaphthalen-1(2H)-ylidene]allyl}-(3R)-piperidine-3-carboxylic acid]] showed an IC50 of 13.5 µM. In assay [7], this molecule registered a remaining activity at 100 µM of 70%. For the same molecule, the Ki in assay [2] is 58.9 µM.
In the case of `O=C(O)C1CCCN(CCC=C=C(c2ccc(Cl)cc2)c2ccc(Cl)cc2)C1` (racemic) [rac-11d, rac-{1-[5,5-Bis(4-chlorophenyl)penta-3,4-dien-1-yl]piperidine-3-carboxylic acid}], the IC50 was 1.91 µM in assay [1], 12 µM in assay [3], 28.2 µM in assay [4] and 17 µM in assay [5]. For the same molecule, affinity in assay [2] was put at a Ki of 0.631 µM.
Molecule `O=C(O)C1CCCN(CC=C=C(c2ccccc2)c2ccccc2)C1` (racemic) [rac-8a, rac-[1-(4,4-Diphenylbuta-2,3-dien-1-yl)piperidine-3-carboxylic acid]] showed an IC50 in assay [1] of 7.41 µM. The molecule further returned a remaining activity at 100 µM in assay [7] of 82%. The Ki in assay [2] is 1.17 µM.
For the molecule `O=C(O)C1CCCN(CC=C=C(c2ccccc2)c2ccc(-c3ccccc3)cc2)C1` (racemic) [8f, rac-{(Ra)-1-[4-(1,1’-biphenyl-4-yl)-4-phenylbuta-2,3-dien-1-yl]-(3R)-piperidine-3-carboxylic acid} [rac-(3R,Ra)-8f] and rac-{(Sa)-1-[4-(1,1’-biphenyl-4-yl)-4-phenylbuta-2,3-dien-1-yl]-(3R)-piperidine-3-carboxylic acid}], the IC50 in assay [1] was 5.01 µM; in assay [3], 6.46 µM; in assay [4], 8.32 µM; in assay [5] it was 4.47 µM; in assay [6] it was 1.66 µM. The same molecule gave a Ki in assay [2] of 1.23 µM.
